Bounds are passed on as bounds.

For orientation: IC50 means the point on the concentration scale where inhibition reaches its midpoint. High values mean weaker potency in that assay, low ones greater potency in that assay.

Test in all cases: PI 3-Kinase Assay (Additional Pharmacological Analysis, AlphaScreen)
Common to all, as to type: biochemical
Holding throughout (conditions): 40 μM ATP
A general note: In Alpha technology, singlet oxygen from a donor bead excites a nearby acceptor bead.

Experiment [1] concerns the target T1, p110α Type Ia human PI3K (Homo sapiens, UniProt P42336).
T1 construct: full length DNA of each of the p110α, p110β and p110δ Type Ia human PI3K p110 isoforms; 6-His; made in house; host or cells: baculovirus expression system (Sf9 is named only for PI3Kγ)
From the text: (§1) In order to assess the ability of compounds to inhibit PI3K enzymes, especially PI3Kγ, a novel PI3K assay technology was established. The PI3K enzyme reaction product phosphatidylinositol 3,4,5-trisphosphate (PtdIns(3,4,5)P3) is detected using the pleckstrin homology (PH) domain from general receptor for phosphoinositides (GRP1) as probe. Thus, complexes form between GRP1 PH and PtdIns(3,4,5)P3, and if the lipid is biotinylated and the PH domain tagged with glutathion transferase (GST), the complexes can be detected using AlphaScreen® (PerkinElmer) technology. The signal generated by the complex between GRP1 PH-GST and PtdIns(3,4,5)P3-biotin can be quenched by introduction of non-biotinylated PtdIns(3,4,5)P3, forming the basis for an assay measuring the production of PtdIns(3,4,5)P3 by PI3K enzyme activity.
(§2) Biotinylated PtdIns(3,4,5)P3 was detected using AlphaScreen® technology. Detection was in 384-well microplates in 50 mM Hepes, pH7.4, 50 mM NaCl and 0.1% BSA. The biotinylated, short chain (diC8) phosphoinositide and GRP1 PH-GST were added at 15 nM and 3.75 nM, respectively. Donor and acceptor AlphaScreen® beads (Perkin Elmer) were added at 5 μg/ml to a final volume of 50 μl. Plates were incubated in the dark for 5 hours to ensure binding was complete and then read in an AlphaQuest AD instrument (Perkin Elmer) using standard settings.
(§3) The GRP1 PH domain (amino acids 263 to 380) was PCR cloned from a mouse brain cDNA library (Stratagene), expressed in E. coli and purified using standard protocols. Lipids were from Echelon Research Laboratories, Salt Lake City, Utah, or Cell Signals Inc., Lexington, Ky., USA.
(§4) The assay used AlphaScreen® based detection of PI(3,4,5)P3 (Gray et al., Anal. Biochem., 2003, 313, 234-245) to determine the ability of test compounds to inhibit phosphorylation of recombinant PI3Ks of PI(4,5)P2.
(§5) DNA fragments encoding human PI3K catalytic and regulatory subunits were isolated from cDNA libraries using standard molecular biology and PCR cloning techniques. The selected DNA fragments were used to generate baculovirus expression vectors. In particular, full length DNA of each of the p110α, p110β and p110δ Type Ia human PI3K p110 isoforms (EMBL Accession Nos. HSU79143, S67334, Y10055 for p110α, p110β and p110δ, respectively) were sub-cloned into a pDEST10 vector (Invitrogen Limited, Fountain Drive, Paisley, UK). The vector is a Gateway-adapted version of Fastbac1 containing a 6-His epitope tag. The full length human p85 (regulatory subunit (EMBL Accession No. HSP13KIN) was also sub-cloned into pFastBac1 vector containing a 6-His epitope tag. The Type Ia p110 constructs were co-expressed with the p85α regulatory subunit. Residues 2-1102 of human PI3Kγ were inserted between the BamHI and Not1 cloning sites of the […] HTb vector for expression of His(6)-tagged (N-terminal), full length PI3Kγ in baculo virus infected Sf9 insect cells. Following expression in the baculovirus system using standard baculovirus expression techniques, expressed proteins were purified using standard His epitope tag purification techniques.
(§6) Standard enzyme reactions were performed in 50 mM Hepes, pH7.4, 50 mM NaCl, […], 5 mM DTT and 0.05% CHAPS containing 40 μM ATP, 40 μM diC8 PtdIns(4,5)P2 and 2-20 ng of Type 1 PI3K in a total volume of 20 μl. The reaction was stopped by the addition of 10 μl of EDTA/diC6 PtdIns(3,4,5)P3-biotin followed by 20 μl of GRP1 PH-GST/AlphaScreen beads both in 50 mM Hepes, pH7.4, 50 mM NaCl and 0.1% BSA. Final concentrations were 50 mM EDTA, 15 nM biotinylated diC6PtdIns(3,4,5)P3, 3.75 nM GRP1 PH-GST and 5 μg/ml of AlphaScreen beads. Inhibitors were added to dry wells in […] of 100% DMSO giving a final DMSO concentration of 2.5% in the assay. Control wells contained 2.5% DMSO in the absence of test compound. Inhibition of PI3K by test compounds was expressed as an IC50 value.

Experiment [2] addresses T2, p110β Type Ia human PI3K (Homo sapiens, UniProt P42338).
T2 construct: full length DNA of each of the p110α, p110β and p110δ Type Ia human PI3K p110 isoforms; 6-His; made in house; host or cells: baculovirus expression system (Sf9 is named only for PI3Kγ)
Text: as §1, §2, §3, §4, §5, §6

The target of experiment [3] is T3, p110δ Type Ia human PI3K (Homo sapiens, UniProt O00329).
T3 construct: full length DNA of each of the p110α, p110β and p110δ Type Ia human PI3K p110 isoforms; 6-His; made in house; host or cells: baculovirus expression system (Sf9 is named only for PI3Kγ)
T3 sequence (O00329 whole entry, canonical isoform): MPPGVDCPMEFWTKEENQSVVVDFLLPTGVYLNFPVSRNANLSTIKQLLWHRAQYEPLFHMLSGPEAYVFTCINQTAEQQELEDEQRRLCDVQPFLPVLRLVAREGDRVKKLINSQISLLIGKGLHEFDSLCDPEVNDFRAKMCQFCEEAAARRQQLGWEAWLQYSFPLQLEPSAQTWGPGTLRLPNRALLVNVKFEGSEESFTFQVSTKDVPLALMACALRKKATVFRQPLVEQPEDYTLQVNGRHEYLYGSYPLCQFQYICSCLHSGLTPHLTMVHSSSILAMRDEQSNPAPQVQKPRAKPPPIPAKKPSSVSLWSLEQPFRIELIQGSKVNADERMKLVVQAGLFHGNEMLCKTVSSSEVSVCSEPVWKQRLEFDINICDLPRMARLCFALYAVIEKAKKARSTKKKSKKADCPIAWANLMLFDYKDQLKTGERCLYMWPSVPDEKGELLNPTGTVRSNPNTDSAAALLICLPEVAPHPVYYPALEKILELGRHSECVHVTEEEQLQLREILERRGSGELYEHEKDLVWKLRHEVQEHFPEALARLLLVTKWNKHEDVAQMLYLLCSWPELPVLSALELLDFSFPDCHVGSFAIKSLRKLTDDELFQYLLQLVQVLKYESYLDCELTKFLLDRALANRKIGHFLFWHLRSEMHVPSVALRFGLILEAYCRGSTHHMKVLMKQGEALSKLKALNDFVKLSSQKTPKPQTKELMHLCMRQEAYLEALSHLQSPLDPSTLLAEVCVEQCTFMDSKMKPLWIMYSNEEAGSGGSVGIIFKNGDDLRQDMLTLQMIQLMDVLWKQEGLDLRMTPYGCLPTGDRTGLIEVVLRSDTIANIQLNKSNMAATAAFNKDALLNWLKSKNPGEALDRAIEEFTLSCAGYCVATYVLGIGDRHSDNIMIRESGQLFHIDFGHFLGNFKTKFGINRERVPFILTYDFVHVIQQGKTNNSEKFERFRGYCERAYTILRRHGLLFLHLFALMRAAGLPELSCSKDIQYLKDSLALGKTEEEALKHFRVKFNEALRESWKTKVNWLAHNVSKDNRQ
T3 sequence (P27986 whole entry partner, canonical isoform): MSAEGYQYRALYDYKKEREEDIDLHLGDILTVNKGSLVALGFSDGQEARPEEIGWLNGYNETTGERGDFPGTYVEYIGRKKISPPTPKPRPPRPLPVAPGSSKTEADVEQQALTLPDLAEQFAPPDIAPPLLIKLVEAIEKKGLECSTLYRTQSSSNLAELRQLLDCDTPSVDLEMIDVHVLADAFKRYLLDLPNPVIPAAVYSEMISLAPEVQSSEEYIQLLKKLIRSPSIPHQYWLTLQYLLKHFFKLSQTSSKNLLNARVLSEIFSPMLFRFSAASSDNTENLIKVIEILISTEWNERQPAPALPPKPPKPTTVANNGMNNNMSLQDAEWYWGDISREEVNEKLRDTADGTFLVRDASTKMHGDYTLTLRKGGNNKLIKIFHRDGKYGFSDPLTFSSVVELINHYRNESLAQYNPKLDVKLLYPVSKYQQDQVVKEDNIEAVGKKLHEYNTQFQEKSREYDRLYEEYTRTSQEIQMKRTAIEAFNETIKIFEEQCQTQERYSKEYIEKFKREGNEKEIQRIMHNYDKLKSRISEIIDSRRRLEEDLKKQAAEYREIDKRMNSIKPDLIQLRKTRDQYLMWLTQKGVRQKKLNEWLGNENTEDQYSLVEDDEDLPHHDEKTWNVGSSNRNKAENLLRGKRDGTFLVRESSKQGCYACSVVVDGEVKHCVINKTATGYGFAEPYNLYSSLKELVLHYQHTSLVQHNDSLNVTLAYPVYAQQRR
Text: as §1, §2, §3, §4, §5, §6

For experiment [4], the target named is T4, p110γ Type Ib human PI3K (Homo sapiens, UniProt P48736).
T4 construct: Residues 2-1102 of human PI3Kγ were inserted between the BamHI and Not1 cloning sites; His(6) (N); made in house; host or cells: baculovirus-infected Sf9 insect cells
T4 sequence (P48736 2-1102): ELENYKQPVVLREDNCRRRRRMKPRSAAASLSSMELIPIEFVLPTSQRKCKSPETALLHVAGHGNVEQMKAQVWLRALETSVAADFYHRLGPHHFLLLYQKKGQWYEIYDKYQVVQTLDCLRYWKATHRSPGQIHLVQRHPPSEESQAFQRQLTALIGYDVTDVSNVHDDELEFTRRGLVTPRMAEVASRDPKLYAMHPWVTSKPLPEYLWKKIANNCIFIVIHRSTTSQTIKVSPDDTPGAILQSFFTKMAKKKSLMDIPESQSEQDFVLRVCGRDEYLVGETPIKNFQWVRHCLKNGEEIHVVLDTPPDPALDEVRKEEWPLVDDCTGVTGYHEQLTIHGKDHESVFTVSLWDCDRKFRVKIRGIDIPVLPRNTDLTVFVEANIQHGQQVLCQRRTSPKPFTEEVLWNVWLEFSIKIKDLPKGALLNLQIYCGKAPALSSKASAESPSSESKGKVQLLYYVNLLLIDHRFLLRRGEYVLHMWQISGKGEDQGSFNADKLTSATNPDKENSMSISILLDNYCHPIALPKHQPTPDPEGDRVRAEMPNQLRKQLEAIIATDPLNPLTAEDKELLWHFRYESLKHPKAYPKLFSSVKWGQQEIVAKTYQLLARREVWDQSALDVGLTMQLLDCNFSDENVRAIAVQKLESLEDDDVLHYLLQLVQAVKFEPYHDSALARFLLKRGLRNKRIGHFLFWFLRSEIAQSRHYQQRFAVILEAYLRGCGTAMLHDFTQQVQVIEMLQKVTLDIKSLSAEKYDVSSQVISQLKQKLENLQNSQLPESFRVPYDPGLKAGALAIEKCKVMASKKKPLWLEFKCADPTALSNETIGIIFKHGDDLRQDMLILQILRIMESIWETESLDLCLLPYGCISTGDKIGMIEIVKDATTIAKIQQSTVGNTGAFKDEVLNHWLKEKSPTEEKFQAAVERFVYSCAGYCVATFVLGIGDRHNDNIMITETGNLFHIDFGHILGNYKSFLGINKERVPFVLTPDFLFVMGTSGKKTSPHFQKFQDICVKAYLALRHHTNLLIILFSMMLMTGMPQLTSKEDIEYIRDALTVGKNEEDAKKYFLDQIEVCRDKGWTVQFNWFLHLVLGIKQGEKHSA
Text: as §1, §2, §3, §4, §5, §6

T1 sequence (P42336 whole entry, canonical isoform): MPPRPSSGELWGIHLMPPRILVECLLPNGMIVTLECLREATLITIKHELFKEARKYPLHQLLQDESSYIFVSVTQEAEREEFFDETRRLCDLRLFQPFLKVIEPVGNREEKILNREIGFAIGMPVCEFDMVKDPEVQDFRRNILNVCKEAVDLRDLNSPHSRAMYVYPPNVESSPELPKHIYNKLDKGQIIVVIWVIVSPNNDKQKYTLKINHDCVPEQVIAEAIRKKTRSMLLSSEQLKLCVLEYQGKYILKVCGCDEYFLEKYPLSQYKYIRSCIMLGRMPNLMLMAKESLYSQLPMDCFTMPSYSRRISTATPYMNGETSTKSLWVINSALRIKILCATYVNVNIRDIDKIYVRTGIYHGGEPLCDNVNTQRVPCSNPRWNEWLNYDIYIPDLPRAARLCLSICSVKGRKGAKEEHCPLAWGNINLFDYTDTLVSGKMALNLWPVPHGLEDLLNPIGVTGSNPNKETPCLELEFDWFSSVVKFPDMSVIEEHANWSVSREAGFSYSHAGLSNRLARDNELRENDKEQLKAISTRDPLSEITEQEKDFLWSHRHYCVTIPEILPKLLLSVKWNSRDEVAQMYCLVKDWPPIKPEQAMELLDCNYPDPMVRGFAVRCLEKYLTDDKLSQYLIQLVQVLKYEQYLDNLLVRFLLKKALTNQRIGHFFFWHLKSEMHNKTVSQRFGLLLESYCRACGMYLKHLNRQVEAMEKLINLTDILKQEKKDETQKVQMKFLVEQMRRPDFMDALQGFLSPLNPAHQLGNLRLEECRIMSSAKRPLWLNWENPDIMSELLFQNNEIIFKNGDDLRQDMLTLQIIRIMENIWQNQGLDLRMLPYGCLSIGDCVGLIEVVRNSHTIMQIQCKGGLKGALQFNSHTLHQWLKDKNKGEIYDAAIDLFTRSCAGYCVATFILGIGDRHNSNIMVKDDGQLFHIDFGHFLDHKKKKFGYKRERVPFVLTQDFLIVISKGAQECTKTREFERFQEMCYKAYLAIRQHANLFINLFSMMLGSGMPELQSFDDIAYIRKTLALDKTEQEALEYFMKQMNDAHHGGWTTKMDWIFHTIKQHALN
T1 sequence (P27986 whole entry partner, canonical isoform): as the sequence (P27986 whole entry partner, canonical isoform) above
T2 sequence (P42338 whole entry, canonical isoform): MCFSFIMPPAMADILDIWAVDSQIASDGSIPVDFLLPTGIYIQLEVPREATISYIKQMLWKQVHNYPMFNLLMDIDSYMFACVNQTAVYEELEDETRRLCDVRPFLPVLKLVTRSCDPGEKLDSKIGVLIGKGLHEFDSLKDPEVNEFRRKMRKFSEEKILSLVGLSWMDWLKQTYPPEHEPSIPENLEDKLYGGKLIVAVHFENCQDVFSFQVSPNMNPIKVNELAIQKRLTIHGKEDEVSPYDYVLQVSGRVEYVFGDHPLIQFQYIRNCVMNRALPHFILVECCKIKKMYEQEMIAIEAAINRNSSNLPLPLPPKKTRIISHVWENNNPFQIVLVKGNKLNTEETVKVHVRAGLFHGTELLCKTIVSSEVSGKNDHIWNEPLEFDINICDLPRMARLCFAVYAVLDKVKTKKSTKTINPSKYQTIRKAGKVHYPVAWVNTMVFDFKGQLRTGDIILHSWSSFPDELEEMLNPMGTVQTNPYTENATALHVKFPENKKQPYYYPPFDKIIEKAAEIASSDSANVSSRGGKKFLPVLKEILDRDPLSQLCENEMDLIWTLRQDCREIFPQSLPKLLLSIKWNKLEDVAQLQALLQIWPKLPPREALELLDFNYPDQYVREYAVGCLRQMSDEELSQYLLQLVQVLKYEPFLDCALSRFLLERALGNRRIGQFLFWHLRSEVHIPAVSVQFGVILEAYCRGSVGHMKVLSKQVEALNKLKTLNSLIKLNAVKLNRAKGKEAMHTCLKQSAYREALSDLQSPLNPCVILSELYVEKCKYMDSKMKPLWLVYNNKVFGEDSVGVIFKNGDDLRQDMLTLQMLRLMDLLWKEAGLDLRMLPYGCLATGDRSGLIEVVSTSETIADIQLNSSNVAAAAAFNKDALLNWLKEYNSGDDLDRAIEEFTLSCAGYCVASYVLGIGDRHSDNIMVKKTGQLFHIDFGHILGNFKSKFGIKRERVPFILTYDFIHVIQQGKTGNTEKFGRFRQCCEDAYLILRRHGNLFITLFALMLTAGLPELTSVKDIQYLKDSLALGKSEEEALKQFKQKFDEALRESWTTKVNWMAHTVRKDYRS
T2 sequence (P27986 whole entry partner, canonical isoform): as the sequence (P27986 whole entry partner, canonical isoform) above

For `CC(=O)Nc1nc(C)c(-c2cnc(Cl)c(S(C)(=O)=O)c2)s1` [Example 7, N-[5-(6-Chloro-5-methylsulfonyl-pyridin-3-yl)-4-methyl-1,3-thiazol-2-yl]acetamide], the IC50 in experiment [1] amounted to 0.42 µM; in experiment [2] it was 0.74 µM; in experiment [3], 0.15 µM; in experiment [4], 0.22 µM.
The corresponding values for `CC(=O)Nc1nc(C)c(-c2cncc(S(=O)(=O)NCCO)c2)s1` [Example 8, N-{5-[5-(2-Hydroxyethylaminosulfonyl)pyridin-3-yl]-4-methyl-1,3-thiazol-2-yl}acetamide] are 0.57 µM, 1.89 µM, 0.2 µM and 0.4 µM.
In the same order, the values of `CC(=O)Nc1nc(C)c(-c2cnc(Cl)c(NS(=O)(=O)CCCN3CCN(C)CC3)c2)s1` [Example 31, N-(5-{6-Chloro-5-[3-(4-methylpiperazin-1-yl)propylsulfonylamino]pyridin-3-yl}-4-methyl-1,3-thiazol-2-yl)acetamide bis(trifluoroacetate)] are 0.05 µM, 0.25 µM, 0.01 µM and 0.16 µM.
The corresponding values for `CC(=O)Nc1nc(C)c(-c2cnc(Cl)c(NCc3ccccc3)c2)s1` [Example 46, N-{5-[5-(Benzylamino)-6-chloropyridin-3-yl]-4-methyl-1,3-thiazol-2-yl}acetamide] are 0.28 µM, 0.63 µM, 0.2 µM and 0.12 µM.
Take `COCC(=O)Nc1nc(C)c(-c2cnc(Cl)c(NS(=O)(=O)c3ccccc3)c2)s1` [Example 56, N-[5-(5-Benzenesulfonylamino-6-chloropyridin-3-yl)-4-methyl-1,3-thiazol-2-yl]-2-methoxyacetamide]: the IC50 in experiment [1] is 0.23 µM; in experiment [2] it was 0.12 µM; in experiment [3], below 0.1 µM; in experiment [4] it was 0.26 µM.

The values above are taken from patent US7868188B2, “5-heteroaryl thiazoles and their use as PI3K inhibitors” (AstraZeneca AB, priority 2004, dated 2011).
